US20240246967A1, “AXL COMPOUNDS” (ARCUS BIOSCIENCES, INC., priority 2021, published 2024)

Tests used:
Axl = target: T1, Axl (Homo sapiens, UniProt P30530); experiment: HTRF KinEASE-TK biochemical potency assay, AXL; design: purchased Invitrogen; settings: 5 nM AXL, 700 μM ATP, 800 nM TK Substrate-biotin
T1 sequence (P30530 26-894): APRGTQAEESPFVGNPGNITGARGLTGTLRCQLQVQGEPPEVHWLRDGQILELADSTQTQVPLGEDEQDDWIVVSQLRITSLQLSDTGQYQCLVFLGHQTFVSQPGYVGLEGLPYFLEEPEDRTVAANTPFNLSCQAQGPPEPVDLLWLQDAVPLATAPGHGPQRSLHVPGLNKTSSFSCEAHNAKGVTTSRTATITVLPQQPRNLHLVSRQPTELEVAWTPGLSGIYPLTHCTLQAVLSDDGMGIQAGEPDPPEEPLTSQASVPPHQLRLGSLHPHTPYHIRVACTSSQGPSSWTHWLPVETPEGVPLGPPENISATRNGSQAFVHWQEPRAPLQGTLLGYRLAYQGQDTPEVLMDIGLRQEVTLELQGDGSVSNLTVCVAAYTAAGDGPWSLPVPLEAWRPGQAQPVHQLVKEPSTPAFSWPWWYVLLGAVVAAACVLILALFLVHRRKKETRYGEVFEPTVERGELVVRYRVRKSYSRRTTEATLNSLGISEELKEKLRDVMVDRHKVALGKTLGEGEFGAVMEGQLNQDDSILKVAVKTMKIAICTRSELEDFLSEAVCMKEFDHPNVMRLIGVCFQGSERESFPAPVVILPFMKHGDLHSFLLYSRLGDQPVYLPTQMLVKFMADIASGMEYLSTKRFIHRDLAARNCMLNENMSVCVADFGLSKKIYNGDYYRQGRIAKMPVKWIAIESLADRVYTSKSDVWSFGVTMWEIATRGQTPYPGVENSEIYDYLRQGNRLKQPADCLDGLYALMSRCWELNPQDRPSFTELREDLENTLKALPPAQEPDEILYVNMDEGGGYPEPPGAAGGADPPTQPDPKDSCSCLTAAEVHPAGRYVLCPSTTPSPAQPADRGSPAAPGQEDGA
Experimental: (§1) Purified recombinant human AXL, TYRO3 and MER proteins were purchased from Invitrogen™. 10 nM AXL, 2 nM TYRO3 or MER were incubated with varying concentrations of compounds in 50 mM HEPES, pH 7.4, 10 mM MgCl2, 0.01% BSA, 1 mM DTT and 2% DMSO in a total volume of 20 μl in a 384-well microplate (Corning™ #3640) at RT for 1 h. The AXL, TYRO3 and MER enzymatic reaction was initiated by transferring 10 μl of enzyme and compound mixture into 10 μl of 1.6 μM TK Substrate-biotin (HTRF® KinEASE-TK kit, Cisbio) and 1400 μM ATP pre-incubated in 50 mM HEPES, pH 7.4, 10 mM MgCl2, 0.01% BSA, 1 mM DTT in a 384-well microplate (Corning™ #3640) at RT, giving the final reaction conditions: 5 nM AXL, 1 nM TYRO3 or MER, 800 nM TK Substrate-biotin and 700 μM ATP in 50 mM HEPES, pH 7.4, 10 mM MgCl2, 0.01% BSA, 1 mM DTT and 1% DMSO with varying concentrations of compounds. Following 2 h incubation at RT, the AXL, TYRO3 and MER enzymatic reaction was stopped by transfer of 10 μl of reaction into 10 μl of detection mix (400 nM Streptavidin-XL665, 200-fold dilution TK Antibody-Cryptate and detection buffer, HTRF® KinEASE-TK kit, Cisbio) in a white 384-well microplate (Perkin Elmer, OptiPlate 384). After 1 h incubation at RT, the plate was put into a plate reader (Evision) to read at 665/620 nm (acceptor/donor) for HTRF. The value of the DMSO blank (MIN inhibition=100% activity) was used as a negative control. The positive control was established by adding 5 μl of enzyme and DMSO mixture into 10 μl of detection mix followed by addition of 5 μl of TK Substrate-biotin and ATP mixture (MAX inhibition=0% activity). To calculate the percent activity, Equation 1 was used. Ratio 665/620 is the value at a given compound concentration: […]

human MER = target: T2, human MER (Homo sapiens, UniProt Q12866); experiment: HTRF KinEASE-TK biochemical potency assay, MER; settings: 1 nM MER, 700 μM ATP, 800 nM TK Substrate-biotin
T2 construct: purchased Invitrogen
T2 sequence (Q12866 21-999): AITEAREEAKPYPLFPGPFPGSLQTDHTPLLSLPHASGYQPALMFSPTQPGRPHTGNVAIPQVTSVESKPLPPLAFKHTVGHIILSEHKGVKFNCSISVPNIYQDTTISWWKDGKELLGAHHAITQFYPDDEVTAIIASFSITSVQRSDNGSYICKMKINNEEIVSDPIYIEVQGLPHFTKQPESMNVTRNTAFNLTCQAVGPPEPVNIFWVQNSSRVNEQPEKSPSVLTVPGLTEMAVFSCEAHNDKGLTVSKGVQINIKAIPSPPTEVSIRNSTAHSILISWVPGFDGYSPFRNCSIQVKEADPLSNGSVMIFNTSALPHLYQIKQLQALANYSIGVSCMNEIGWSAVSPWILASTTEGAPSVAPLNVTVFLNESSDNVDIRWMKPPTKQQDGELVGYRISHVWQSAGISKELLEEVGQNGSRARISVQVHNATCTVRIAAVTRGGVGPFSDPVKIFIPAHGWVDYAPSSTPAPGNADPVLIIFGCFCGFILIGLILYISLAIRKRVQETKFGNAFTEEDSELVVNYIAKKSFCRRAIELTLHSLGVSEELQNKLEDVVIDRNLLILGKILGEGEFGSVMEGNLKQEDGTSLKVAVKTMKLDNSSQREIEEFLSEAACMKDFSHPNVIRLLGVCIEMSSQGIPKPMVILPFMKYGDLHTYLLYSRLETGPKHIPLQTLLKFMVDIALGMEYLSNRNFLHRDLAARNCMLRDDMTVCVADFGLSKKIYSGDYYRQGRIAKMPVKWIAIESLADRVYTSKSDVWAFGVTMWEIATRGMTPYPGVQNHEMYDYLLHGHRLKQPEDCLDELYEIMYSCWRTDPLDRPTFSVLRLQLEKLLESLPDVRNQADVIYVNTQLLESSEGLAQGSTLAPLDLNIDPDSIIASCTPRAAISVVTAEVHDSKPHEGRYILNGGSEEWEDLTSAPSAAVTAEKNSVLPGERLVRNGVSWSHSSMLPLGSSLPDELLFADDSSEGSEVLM
Experimental: as §1

SMILES | IC50 (Axl) [nM] | IC50 (human MER) [nM]
C[C@H]1CCCN1C1CCc2ccc(-c3cnc4[nH]nc(-c5ccc(S(=O)(=O)C6CC6)cc5)c4c3)cc2CC1 (stereo partly drawn) [Example 24, 3-(4-(Cyclopropylsulfonyl)phenyl)-5-(7-((S)-2-methylpyrrolidin-1-yl)-6,7,8,9-tetrahydro-5H-benzo[7]annulen-2-yl)-1H-pyrazolo[3,4-b]pyridine] | < 100 | 100 to 1000
C[C@@H]1CCCN1C1(C)CCc2ccc(-c3cnc4[nH]nc(-c5ccc(S(=O)(=O)C6CC6)c(F)c5)c4c3)cc2CC1 (stereo partly drawn) [Example 25, (2R)-1-(2-{3-[4-(Cyclopropanesulfonyl)-3-fluorophenyl]-1H-pyrazolo[3,4-b]pyridin-5-yl}-7-methyl-6,7,8,9-tetrahydro-5H-benzo[7]annulen-7-yl)-2-methylpyrrolidine] | < 100 | 100 to 1000
O=S(=O)(c1ccc(-c2n[nH]c3ncc(-c4ccc5c(c4)CCN(C4CCOCC4)CC5)cc23)cc1)C1CC1 [Example 26, 7-{3-[4-(Cyclopropanesulfonyl)phenyl]-1H-pyrazolo[3,4-b]pyridin-5-yl}-3-(oxan-4-yl)-2,3,4,5-tetrahydro-1H-3-benzazepine] | < 100 | > 1000
O=S(=O)(c1ccc(-c2n[nH]c3ncc(-c4ccc5c(c4)CCN(CC4CCOC4)CC5)cc23)cc1)C1CC1 (stereo not drawn) [Example 27, 7-{3-[4-(Cyclopropanesulfonyl)phenyl]-1H-pyrazolo[3,4-b]pyridin-5-yl}-3-[(oxolan-3-yl)methyl]-2,3,4,5-tetrahydro-1H-3-benzazepine] | < 100 | > 1000
CS(=O)(=O)c1ccc(-c2n[nH]c3ncc(-c4ccc5c(c4)CCN(C4CCCC4)CC5)cc23)cc1 [Example 30, 3-Cyclopentyl-7-(3-(4-(methylsulfonyl)phenyl)-1H-pyrazolo[3,4-b]pyridin-5-yl)-2,3,4,5-tetrahydro-1H-benzo[d]azepine] | < 100 | 100 to 1000
CS(=O)(=O)c1ccc(-c2n[nH]c3ncc(-c4ccc5c(c4)CCN(C4CCCC4)CC5)cc23)cc1Cl [Example 31, 7-(3-(3-Chloro-4-(methylsulfonyl)phenyl)-1H-pyrazolo[3,4-b]pyridin-5-yl)-3-cyclopentyl-2,3,4,5-tetrahydro-1H-benzo[d]azepine] | < 100 | 100 to 1000
CS(=O)(=O)c1ccc(-c2n[nH]c3ncc(-c4ccc5c(c4)CCN(C4CCCC4)CC5)cc23)cc1F [Example 32, 3-Cyclopentyl-7-(3-(3-fluoro-4-(methylsulfonyl)phenyl)-1H-pyrazolo[3,4-b]pyridin-5-yl)-2,3,4,5-tetrahydro-1H-benzo[d]azepine] | < 100 | 100 to 1000

Other lines, results leading:

IC50 (Axl) [nM] | IC50 (human MER) [nM] | SMILES
< 100 | > 1000 | COCCN1CCc2ccc(-c3cnc4[nH]nc(-c5ccc(C(C)(C)O)c(Cl)c5)c4c3)cc2CC1 [Example 34, 2-(2-Chloro-4-(5-(3-(2-methoxyethyl)-2,3,4,5-tetrahydro-1H-benzo[d]azepin-7-yl)-1H-pyrazolo[3,4-b]pyridin-3-yl)phenyl)propan-2-ol]
< 100 | 100 to 1000 | C[C@@H]1CCCN1C1CCc2ccc(-c3cnc4[nH]nc(-c5ccc(C(C)(C)O)c(Cl)c5)c4c3)cc2CC1 (stereo partly drawn) [Example 35, 2-(2-Chloro-4-(5-(7-((R)-2-methylpyrrolidin-1-yl)-6,7,8,9-tetrahydro-5H-benzo[7]annulen-2-yl)-1H-pyrazolo[3,4-b]pyridin-3-yl)phenyl)propan-2-ol]
< 100 | 100 to 1000 | C[C@H]1CCCN1C1CCc2ccc(-c3cnc4[nH]nc(-c5ccc(S(C)(=O)=O)cc5)c4c3)cc2CC1 (stereo partly drawn) [Example 36, 5-(7-((S)-2-Methylpyrrolidin-1-yl)-6,7,8,9-tetrahydro-5H-benzo[7]annulen-2-yl)-3-(4-(methylsulfonyl)phenyl)-1H-pyrazolo[3,4-b]pyridine]
< 100 | 100 to 1000 | C[C@H]1CCCN1C1CCc2ccc(-c3cnc4[nH]nc(-c5ccc(C(C)(C)O)c(Cl)c5)c4c3)cc2CC1 (stereo partly drawn) [Example 37, 2-(2-Chloro-4-(5-(7-((S)-2-methylpyrrolidin-1-yl)-6,7,8,9-tetrahydro-5H-benzo[7]annulen-2-yl)-1H-pyrazolo[3,4-b]pyridin-3-yl)phenyl)propan-2-ol]
< 100 | 100 to 1000 | C[C@@H]1CCCN1C1CCc2ccc(-c3cnc4[nH]nc(-c5ccc(S(C)(=O)=O)cc5)c4c3)cc2CC1 (stereo partly drawn) [Example 38, 5-(7-((R)-2-Methylpyrrolidin-1-yl)-6,7,8,9-tetrahydro-5H-benzo[7]annulen-2-yl)-3-(4-(methylsulfonyl)phenyl)-1H-pyrazolo[3,4-b]pyridine]
< 100 | 100 to 1000 | C[C@@H]1CCCN1C1CCc2ccc(-c3cnc4[nH]nc(-c5ccc(S(=O)(=O)C6CC6)cc5)c4c3)cc2CC1 (stereo partly drawn) [Example 39, 3-(4-(Cyclopropylsulfonyl)phenyl)-5-(7-((R)-2-methylpyrrolidin-1-yl)-6,7,8,9-tetrahydro-5H-benzo[7]annulen-2-yl)-1H-pyrazolo[3,4-b]pyridine]
< 100 | 100 to 1000 | O=S(=O)(c1ccc(-c2n[nH]c3ncc(-c4ccc5c(c4)CC[C@@H](N4CCCC4)CC5)cc23)cc1)C1CC1 [Example 40, (S)-3-(4-(Cyclopropylsulfonyl)phenyl)-5-(7-(pyrrolidin-1-yl)-6,7,8,9-tetrahydro-5H-benzo[7]annulen-2-yl)-1H-pyrazolo[3,4-b]pyridine]
< 100 | 100 to 1000 | CCS(=O)(=O)c1ccc(-c2n[nH]c3ncc(-c4ccc5c(c4)CC[C@@H](N4CCCC4)CC5)cc23)cc1 [Example 41, (S)-3-(4-(Ethylsulfonyl)phenyl)-5-(7-(pyrrolidin-1-yl)-6,7,8,9-tetrahydro-5H-benzo[7]annulen-2-yl)-1H-pyrazolo[3,4-b]pyridine]
